From patent US20210046042A1, “SUBSTANCES AND COMPOSITIONS FOR THE USE IN THE TREATMENT OF ENDOMETRIOSIS AND ENDOMETRIOSIS ASSOCIATED SYMPTOMS” (SISTEMI SALUTE S.R.L., priority 2017, published 2021)
“Also recorded” adds a separate entry of the source.

System: patients affected by endometriosis, IV stage (deep endometriosis, adenomyosis and ovarian endometriosis)
Test: Clinical study on patients affected by endometriosis treated with Luteolin
Type: in vivo, human
Description: Clinical Study on Patients Affected by Endometriosis Treated with […]
A composition in powder for oral administration containing Luteolin (62.5 mg of extract of shells of peanuts standardized to 80% Luteolin) equal to 50 mg was prepared.
18 patients affected by endometriosis, IV stage, were identified, all of them with deep endometriosis, adenomyosis and ovarian endometriosis (endometriosis ovarian cysts larger than 3 cm), the disease diagnosis was placed with diagnostic protocol including vaginal and rectal explorations for the diagnosis of deep endometriosis, Nuclear magnetic resonance of pelvis with examination of resonance parameters for the diagnosis of adenomyosis, thickness of the neck-body junction area (JZ) of the uterus larger than 12 mm, exclusion criterion for adenomyosis thickness smaller than 8 mm, examination of the myometrium structure, examination of the myometrium thicknesses both of front and rear wall, hematic examinations comprising the marker Ca 125, the dosage of 17B-estradiol and of testosterone.
The first group constituted by 18 patients ingested 2 capsules per day, every twelve hours, for 45 days of the composition containing Luteolin 50 mg.
For the disease evaluation:
The dosage of 17B-estradiol
The dosage of testosterone
The Rectal examination for deep endometriosis
The rectal examination for deep endometriosis
The nuclear magnetic resonance of pelvis with contrast medium (gadolinium) were performed.
INCLUSION CRITERIA for experimentation
Not ingestion of pain-relieving drugs
Absence of anti-inflammatory drugs
Positive Vaginal examination
Positive rectal examination

[1] = 21st day of treatment, basal JZ>12 mm
[2] = study group, 21st day of treatment, basal VAS>=7

O=c1cc(-c2ccc(O)c(O)c2)oc2cc(O)cc(O)c12 [Luteolin, 2-(3,4-dihydroxyphenyl)-,5,7dihydroxy-4-chromenone]
Serum dosage of testosterone average value of the sample (21st day of treatment, basal 0.13 ng/ml): 0.15 ng/mL
RMN Adenomyosis JZ between 12 and 8 mm [1]: 5%
RMN Adenomyosis JZ<8 mm [1]: 95%
adenomyosis JZ (Luteolin 50 mg oral twice a day, 18 patients): < 12 mm
disease parameters (deep endometriosis, adenomyosis, ovarian endometriosis) (Luteolin 50 mg oral twice a day, 18 patients, IV stage): quick reduction; also recorded: quick decrease
average maximum diameter of the ovarian cysts (Luteolin 50 mg oral twice a day, 18 patients, from cm 5.34): 2.14 cm
side effects / voluntary suspensions of the treatment (Luteolin 50 mg oral twice a day, 45 days): No side effects
antigen marker Ca 125 (in words) (Luteolin 50 mg twice a day, all treated patients): reduced; also recorded: negativization
RMN ovarian cysts weighted average (maximum diameter) (after 21 days of therapy, basal cm 5.34): 2.14
regression of the symptoms (after five days from the beginning of administration, constant for 45 days): almost disappeared
17 Beta-Estradiol dosage average value of the sample (serum, 21st day of period, 21st day of treatment, basal 199 pg/ml): 196 pg/mL
Ca 125 dosage: average value (serum, 21st day of treatment, basal 72.6 UI/ml): 32.1 UI/ml
Headache (study group, 21st day of treatment, Luteolin 50 mg oral twice a day, basal 21%): 11%
Cystitis (study group, 21st day of treatment, Luteolin 50 mg oral twice a day, basal 23%): 5%
Chronic pelvic pain VAS<3 [2]: 100
Dysmenorrhea VAS<3 [2]: 100
Dyspareunia VAS<=3 [2]: 100
